In the series the target is ATP-dependent translocase ABCB1 (Homo sapiens, UniProt P08183). Description: TP_TRANSPORTER: increase in mitoxantrone intracellular accumulation (Mitoxantrone: 3 uM, VX-710: 2.5 uM) in A2780/Dx5b cells. In kind it is functional, cell-based.
Sequence of ATP-dependent translocase ABCB1 (P08183 whole entry): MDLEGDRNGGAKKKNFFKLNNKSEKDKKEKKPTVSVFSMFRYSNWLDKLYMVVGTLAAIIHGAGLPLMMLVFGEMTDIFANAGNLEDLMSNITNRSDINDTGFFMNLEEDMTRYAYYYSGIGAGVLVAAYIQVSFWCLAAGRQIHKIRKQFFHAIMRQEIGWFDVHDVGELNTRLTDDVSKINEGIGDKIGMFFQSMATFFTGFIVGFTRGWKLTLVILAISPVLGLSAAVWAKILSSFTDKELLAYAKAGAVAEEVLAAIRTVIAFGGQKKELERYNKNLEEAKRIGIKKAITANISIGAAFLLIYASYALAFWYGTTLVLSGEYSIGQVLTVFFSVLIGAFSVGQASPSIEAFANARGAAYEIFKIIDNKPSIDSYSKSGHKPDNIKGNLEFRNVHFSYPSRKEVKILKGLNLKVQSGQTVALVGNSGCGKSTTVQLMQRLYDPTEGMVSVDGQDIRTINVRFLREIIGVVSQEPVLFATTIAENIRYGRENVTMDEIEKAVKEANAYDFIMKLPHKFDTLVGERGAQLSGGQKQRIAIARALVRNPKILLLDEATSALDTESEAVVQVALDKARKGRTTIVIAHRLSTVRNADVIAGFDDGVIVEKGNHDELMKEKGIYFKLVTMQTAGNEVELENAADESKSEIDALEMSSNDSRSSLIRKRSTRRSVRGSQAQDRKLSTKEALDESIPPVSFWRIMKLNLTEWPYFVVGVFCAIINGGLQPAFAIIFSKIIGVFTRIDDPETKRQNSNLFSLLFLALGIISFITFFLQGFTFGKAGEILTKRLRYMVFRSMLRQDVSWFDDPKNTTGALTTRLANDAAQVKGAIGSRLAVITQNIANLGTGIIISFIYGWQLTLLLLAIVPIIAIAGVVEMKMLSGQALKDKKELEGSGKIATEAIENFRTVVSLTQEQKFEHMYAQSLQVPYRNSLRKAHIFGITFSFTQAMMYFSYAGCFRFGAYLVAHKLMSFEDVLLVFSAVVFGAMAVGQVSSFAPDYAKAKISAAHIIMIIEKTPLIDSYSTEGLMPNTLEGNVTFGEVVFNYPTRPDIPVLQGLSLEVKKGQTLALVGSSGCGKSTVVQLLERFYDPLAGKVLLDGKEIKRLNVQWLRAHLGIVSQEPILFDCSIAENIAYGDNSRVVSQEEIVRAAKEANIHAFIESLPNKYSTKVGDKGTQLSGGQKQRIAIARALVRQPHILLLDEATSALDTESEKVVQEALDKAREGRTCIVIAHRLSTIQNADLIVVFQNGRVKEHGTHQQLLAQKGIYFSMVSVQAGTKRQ

As to `COc1cc(C(=O)C(=O)N2CCCC[C@H]2C(=O)OC(CCCc2cccnc2)CCCc2cccnc2)cc(OC)c1OC` [BIRICODAR], the Activity result was “inhibitor [+]”.

The values are drawn from ChEMBL document CHEMBL2074240, “VX-710 (biricodar) increases drug retention and enhances chemosensitivity in resistant cells overexpressing P-glycoprotein, multidrug resistance protein, and breast cancer resistance protein” (Clin Cancer Res, 2004).
